Results published in US9867376B2, “Herbicidal compositions comprising N-tetrazol-5-yl)- or N-(triazol-5-yl)arylcarboxamides” (priority 2012, dated 2018).

Experiments:
Type in all cases: in vivo
Ambrosia artemisiifolia = assay: Greenhouse trial, post-emergence, visual herbicidal effect; details: alone
Method: (§1) The weed seeds were sown in pots (diameter 8 cm) with sandy loam soil and germinated under optimum conditions. The herbides were applied by the post-emergence method onto the pots with the cultures, at a spray volume of 300 I/ha. The herbicides were applied on their own and in combination. The trial was conducted in a greenhouse under optimum growth conditions. The herbicidal effects were assessed visually by comparison of untreated and treated plants. The percentages mean: 0%=no effects, 100%=the plants die off completely). The percentages are used to calculate interactions between individual treatments and combination treatment according to S. R. Colby, Weeds 15, pages 20 to 22 (1967).
(§2) The abbreviations denote: • a.i.=active ingredient • E^C=expected value according to Colby (E^C=A+B−A×B100) • Δ=difference (%) of the measured value to the expected value (%) (measured value minus expected value)
(§3) Evaluation: • measured value E is greater than E^C:→synergism (+Δ) • measured value E equals E^C:→additive effect • measured value E is smaller than E^C:→antagonism (−Δ)

Setaria viridis = assay: as above
Method: as §1, §2, §3

Bidens pilosa = assay: as above
Method: as §1, §2, §3

Pharbitis purpurea = assay: as above; details: alone
Method: as §1, §2, §3

Digitaria sanguinalis = assay: as above; details: alone
Method: as §1, §2, §3

Polygonum convolvulus = assay: as above; details: alone
Method: as §1, §2, §3

Papaver rhoeas = assay: as above; details: alone
Method: as §1, §2, §3

Centaurea cyanis = assay: as above; details: Table 5-81, greenhouse, alone
Method: as §1, §2, §3

Euphorbia heterophylla = assay: Field trial, post-emergence, visual scoring
Method: (§4) The tests were conducted outdoors (plot trials, 10 m^2 per plot, 2 repetitions, spray application with 200-300 liters of water per hectare). Crops and broad-leaved weeds/weed grasses were sown under customary field conditions. In addition, a natural weed flora also appeared. Application was by the post-emergence method. The application rates of the herbicidally active compounds applied on their own or in combinations are likewise shown in the tables below. Evaluations were by visual scoring (using a 0-100% scale) after application by comparison of treated and untreated test variants.
as §2, §3

Galium aparine = assay: Field trial, post-emergence, visual scoring; details: Table 5-92, field, alone, 25 g of a.i./ha
Method: as §4, §2, §3

Brachiaria platyphylla = assay: Greenhouse trial, post-emergence, visual herbicidal effect
Method: as §1, §2, §3

Xanthium strumarium = assay: as above; details: alone
Method: as §1, §2, §3

Portulaca oleracea = assay: Field trial, post-emergence, visual scoring; details: alone
Method: as §4, §2, §3

[1] = Table 5-91, greenhouse, 2 g of a.i./ha
[2] = Table 5-97, greenhouse, alone, 0.5 g of a.i./ha
[3] = Table 5-99, greenhouse, 1 g of a.i./ha
[4] = Table 5-101, greenhouse, 1 g of a.i./ha
[5] = Table 5-100, greenhouse, 1 g of a.i./ha
[6] = Table 5-103, greenhouse, 2 g of a.i./ha

Compound: CCSc1c(Br)ccc(C(=O)Nc2nnnn2C)c1C [A1-23]
- Activity [%] against Ambrosia artemisiifolia (Ambrosia artemisiifolia; Table 5-29, greenhouse, 1 g of a.i./ha): 10%
- Activity [%] against Ambrosia artemisiifolia (Ambrosia artemisiifolia; Table 5-32, greenhouse, 1 g of a.i./ha): 0%
- Activity [%] against Setaria viridis (Setaria viridis; Table 5-27, greenhouse, alone, 2 g of a.i./ha): 50%
- Activity [%] against Setaria viridis (Setaria viridis; Table 5-31, greenhouse, alone, 2 g of a.i./ha): 50%
- Activity [%] against Bidens pilosa (Bidens pilosa; Table 5-28, greenhouse, alone, 2 g of a.i./ha): 45%
- Activity [%] against Bidens pilosa (Bidens pilosa; Table 5-33, greenhouse, alone, 1 g of a.i./ha): 35%
- Activity [%] against Pharbitis purpurea (Pharbitis purpurea; Table 5-30, greenhouse, 1 g of a.i./ha): 45%
- Activity [%] against Pharbitis purpurea (Pharbitis purpurea; Table 5-34, greenhouse, 2 g of a.i./ha): 45%
- Activity [%] against Digitaria sanguinalis (Digitaria sanguinalis; Table 5-35, greenhouse, 1 g of a.i./ha): 10%

Compound: Cc1c(C(=O)Nc2nnnn2C)ccc(S(C)(=O)=O)c1C1=NOCC1 [A1-24]
- Activity [%] against Polygonum convolvulus (Polygonum convolvulus; Table 5-37, greenhouse, 6 g of a.i./ha): 0%
- Activity [%] against Digitaria sanguinalis (Digitaria sanguinalis; Table 5-36, greenhouse, 6 g of a.i./ha): 50%

Compound: CCc1c(C(=O)Nc2nnnn2C)ccc(C(F)(F)F)c1SC [A1-33]
- Activity [%] against Setaria viridis (Setaria viridis; Table 5-43, greenhouse, alone, 2 g of a.i./ha): 75%
- Activity [%] against Polygonum convolvulus (Polygonum convolvulus; Table 5-44, greenhouse, 4 g of a.i./ha): 0%

Compound: CCOc1c(S(C)(=O)=O)ccc(C(=O)Nc2nnnn2C)c1Cl [A1-69]
- Activity [%] against Papaver rhoeas (Papaver rhoeas; Table 5-82, greenhouse, 4 g of a.i./ha): 10%
- Activity [%] against Papaver rhoeas (Papaver rhoeas; Table 5-83, greenhouse, 4 g of a.i./ha): 10%
- Activity [%] against Centaurea cyanis (Centaurea cyanis; 4 g of a.i./ha): 65%
- Activity [%] against Polygonum convolvulus (Polygonum convolvulus; Table 5-84, greenhouse, 4 g of a.i./ha): 0%
- Activity [%] against Euphorbia heterophylla (Euphorbia heterophylla; Table 5-85, field, alone, 25 g of a.i./ha): 20%

Compound: CCn1nnnc1NC(=O)c1ccc(C(F)F)c(SC)c1OC [A1-79]
- Activity [%] against Ambrosia artemisiifolia (Ambrosia artemisiifolia; [1]): 30%
- Activity [%] against Bidens pilosa (Bidens pilosa; Table 5-90, greenhouse, alone, 2 g of a.i./ha): 20%
- Activity [%] against Galium aparine (Galium aparine): 70%

Compound: COc1c(C(=O)Nc2nnnn2C)ccc(C(F)F)c1S(C)(=O)=O [A1-80]
- Activity [%] against Ambrosia artemisiifolia (Ambrosia artemisiifolia; Table 5-93, greenhouse, 1 g of a.i./ha): 25%

Compound: CCS(=O)(=O)c1ccc(C(=O)Nc2nnnn2C)c(Cl)c1OCCCOC [A1-83]
- Activity [%] against Bidens pilosa (Bidens pilosa; Table 5-96, greenhouse, alone, 1 g of a.i./ha): 35%
- Activity [%] against Brachiaria platyphylla (Brachiaria platyphylla; [2]): 0%

Compound: CCn1nnnc1NC(=O)c1ccc(C)c([S+](C)[O-])c1Cl (centres unmarked) [A1-84]
- Activity [%] against Xanthium strumarium (Xanthium strumarium; [3]): 10%
- Activity [%] against Pharbitis purpurea (Pharbitis purpurea; Table 5-98, greenhouse, 2 g of a.i./ha): 30%

Compound: CSc1c(C(F)(F)F)ccc(C(=O)Nc2nnnn2C)c1Cl [A1-85]
- Activity [%] against Xanthium strumarium (Xanthium strumarium; [4]): 25%
- Activity [%] against Ambrosia artemisiifolia (Ambrosia artemisiifolia; [5]): 50%

Compound: Cc1c(C(=O)Nc2ncnn2C)ccc(S(C)(=O)=O)c1S(C)(=O)=O [A2-4]
- Activity [%] against Xanthium strumarium (Xanthium strumarium; [6]): 10%
- Activity [%] against Ambrosia artemisiifolia (Ambrosia artemisiifolia; Table 5-102, greenhouse, 1 g of a.i./ha): 40%
- Activity [%] against Euphorbia heterophylla (Euphorbia heterophylla; Field, dosage 25 g of a.i./ha): 50%

Compound: CCS(=O)(=O)c1c(C(F)(F)F)ccc(C(=O)Nc2ncnn2C)c1Cl [A2-10]
- Activity [%] against Bidens pilosa (Bidens pilosa; Greenhouse, dosage 2 g of a.i./ha): 50%
- Activity [%] against Brachiaria platyphylla (Brachiaria platyphylla; Greenhouse, dosage 1 g of a.i./ha, Table 5-110): 35%
- Activity [%] against Brachiaria platyphylla (Brachiaria platyphylla; Greenhouse, dosage 2 g of a.i./ha, Table 5-109): 0%

Compound: Nc1c([N+](=O)[O-])ccc(Oc2ccccc2)c1Cl [aclonifen]
- Activity [%] against Portulaca oleracea (Portulaca oleracea; Table 5-22, field, 1200 g of a.i./ha): 0%

Compound: C/C(=N\NC(=O)Nc1cc(F)cc(F)c1)c1ncccc1C(=O)O [diflufenzopyr]
- Activity [%] against Ambrosia artemisiifolia (Ambrosia artemisiifolia; Table 5-93, greenhouse, 25 g of a.i./ha): 50%
- Activity [%] against Setaria viridis (Setaria viridis; Greenhouse, dosage 12.5 g of a.i./ha): 50%
- Activity [%] against Brachiaria platyphylla (Brachiaria platyphylla; Greenhouse, dosage 25 g of a.i./ha, Table 5-113): 60%

Compound: COc1cc(OC)nc(NC(=O)NS(=O)(=O)c2cc(NC=O)ccc2C(=O)N(C)C)n1 [foramsulfuron]
- Activity [%] against Portulaca oleracea (Portulaca oleracea; Table 5-14, field, 16 g of a.i./ha): 0%

Compound: COCc1cnc(C2=NC(C)(C(C)C)C(=O)N2)c(C(=O)O)c1 (centres unmarked) [imazamox]
- Activity [%] against Xanthium strumarium (Xanthium strumarium; [3]): 0%
- Activity [%] against Xanthium strumarium (Xanthium strumarium; [4]): 10%
- Activity [%] against Xanthium strumarium (Xanthium strumarium; [6]): 0%
- Activity [%] against Ambrosia artemisiifolia (Ambrosia artemisiifolia; [1]): 10%
- Activity [%] against Ambrosia artemisiifolia (Ambrosia artemisiifolia; [5]): 0%
- Activity [%] against Ambrosia artemisiifolia (Ambrosia artemisiifolia; Table 5-102, greenhouse, 2 g of a.i./ha): 0%
- Activity [%] against Bidens pilosa (Bidens pilosa; Table 5-46, greenhouse, alone, 1 g of a.i./ha): 10%
- Activity [%] against Bidens pilosa (Bidens pilosa; Table 5-47, greenhouse, alone, 2 g of a.i./ha): 20%
- Activity [%] against Bidens pilosa (Bidens pilosa; Table 5-90, greenhouse, alone, 1 g of a.i./ha): 10%
- Activity [%] against Pharbitis purpurea (Pharbitis purpurea; Table 5-98, greenhouse, 1 g of a.i./ha): 15%
- Activity [%] against Brachiaria platyphylla (Brachiaria platyphylla; Table 5-45, greenhouse, alone, 2 g of a.i./ha): 10%

Compound: CC(C)c1ccc(NC(=O)N(C)C)cc1 [isoproturon]
- Activity [%] against Papaver rhoeas (Papaver rhoeas; Table 5-82, greenhouse, 200 g of a.i./ha): 40%
- Activity [%] against Papaver rhoeas (Papaver rhoeas; Table 5-83, greenhouse, 200 g of a.i./ha): 40%
- Activity [%] against Setaria viridis (Setaria viridis; Table 5-43, greenhouse, alone, 200 g of a.i./ha): 10%
- Activity [%] against Centaurea cyanis (Centaurea cyanis; 100 g of a.i./ha): 0%
- Activity [%] against Polygonum convolvulus (Polygonum convolvulus; Table 5-44, greenhouse, 200 g of a.i./ha): 0%
- Activity [%] against Polygonum convolvulus (Polygonum convolvulus; Table 5-84, greenhouse, 200 g of a.i./ha): 0%

Compound: CS(=O)(=O)c1ccc(C(=O)C2C(=O)CCCC2=O)c([N+](=O)[O-])c1 [mesotrione]
- Activity [%] against Portulaca oleracea (Portulaca oleracea; Table 5-15, field, 25 g of a.i./ha): 0%

Compound: COc1cc(OC)nc(NC(=O)NS(=O)(=O)c2ncccc2C(=O)N(C)C)n1 [nicosulfuron]
- Activity [%] against Portulaca oleracea (Portulaca oleracea; Table 5-19, field, 20 g of a.i./ha): 30%

Compound: CCC(CC)Nc1c([N+](=O)[O-])cc(C)c(C)c1[N+](=O)[O-] [pendimethalin]
- Activity [%] against Xanthium strumarium (Xanthium strumarium; Table 5-77, greenhouse, 100 g of a.i./ha): 0%
- Activity [%] against Polygonum convolvulus (Polygonum convolvulus; Table 5-37, greenhouse, 100 g of a.i./ha): 0%
- Activity [%] against Polygonum convolvulus (Polygonum convolvulus; Table 5-78, greenhouse, 100 g of a.i./ha): 0%
- Activity [%] against Digitaria sanguinalis (Digitaria sanguinalis; Table 5-36, greenhouse, 50 g of a.i./ha): 0%

Compound: CCS(=O)(=O)c1cccnc1S(=O)(=O)NC(=O)Nc1nc(OC)cc(OC)n1 [rimsulfuron]
- Activity [%] against Portulaca oleracea (Portulaca oleracea; Table 5-20, field, 6 g of a.i./ha): 0%

Compound: COC(=O)c1csc(C)c1S(=O)(=O)NC(=O)n1nc(OC)n(C)c1=O [thiencarbazone-methyl]
- Activity [%] against Ambrosia artemisiifolia (Ambrosia artemisiifolia; Table 5-52, greenhouse, 0.25 g of a.i./ha): 0%
- Activity [%] against Ambrosia artemisiifolia (Ambrosia artemisiifolia; Table 5-75, greenhouse, 0.25 g of a.i./ha): 0%
- Activity [%] against Bidens pilosa (Bidens pilosa; Table 5-96, greenhouse, alone, 0.5 g of a.i./ha): 40%
- Activity [%] against Brachiaria platyphylla (Brachiaria platyphylla; [2]): 75%

Compound: bicyclopyrone
- Activity [%] against Portulaca oleracea (Portulaca oleracea; Table 5-18, field, 25 g of a.i./ha): 23%
